In patent US9428460B2, “N-[4-(quinolin-4-yloxy)cyclohexyl(methyl)](hetero)arylcarboxamides as androgen receptor antagonists, production and use thereof as medicinal products” (BAYER PHARMA AKTIENGESELLSCHAFT, priority 2012, dated 2016):

What was measured:
Assay type in all cases: cell-based
[1] = target: androgen receptor mutant W741C (Homo sapiens (Human), UniProt P10275, W742C); experiment: Transactivation assay for the androgen receptor mutant W741C (transfected PC-3 cells); conditions: in the presence of 1×10^−10 M R1881, 24 hours
Description: PC-3 cells (Kaighn et al., Invest. Urol. 17: 16-23, 1979) were plated out at a density of 10000 cells per well of a 96-well cell culture plate in RMPI 1640 medium (F1235, Biochrom AG, Berlin, Germany), which contained activated charcoal-treated calf serum (FCS Serum Gold, PAA Laboratories) at a concentration of 5% (v/v). On the next day the cells were transiently transfected with the pSG5-vector (#216201 Stratagene), which contained the sequence of the androgen receptor mutant W741C (Haapala et al., Lab Invest. 81(12): 1647-51, 2001), and with a reporter plasmid based on pGL4.14 (#E6691, Promega) with the luciferase-gene (from Photinus pyralis) under the control of the MMTV promoter (Cato et al., EMBO J. 6: 363-8, 1987). The cells were treated with the test substances in concentrations from 1×10^−8 to 1×10^−10 M in the presence of 1×10^−10 M R1881 and were incubated overnight at 37° C. and 5% CO2. After 24 hours, 100 μl of Steady Glo Lysis and Detection reagent (E2550, Promega) was added per well and the luminescence was read in a Victor3 Luminometer (PerkinElmer) for 1 second per well. The luminescence values obtained were normalized, wherein 100% corresponded to the effect of the unstimulated control (without R1881), and 0% corresponded to the effect of the stimulated control (R1881 plus DMSO instead of test substance). The IC50 value was determined by regression analysis based on a four-parameter equation (minimum, maximum, IC50, Hill coefficient; Y=Max+(Min−Max)/(1+(X/IC50)^Hill)).

[2] = target: human androgen receptor (full length, wild-type form) (Homo sapiens (Human), UniProt P10275); experiment: Transactivation assay for the wild-type androgen receptor (PC-3 cells, MMTV-luciferase reporter); conditions: in the presence of R1881, 16 hours
Source text: For determining the androgen receptor-dependent transcription, a cellular assay system was used, consisting of PC-3 cells (Kaighn et al., Invest. Urol. 17: 16-23, 1979), which express the human androgen receptor stably and recombinantly (full length, wild-type form, see Swiss-Prot Acc. No. P10275, Entry Version 159, Sequence Version 2). In addition, these PC3 cells contain a stably integrated reporter gene plasmid, which is based on the commercially available plasmid pGL4.14 (#E6691, Promega Corporation, Madison, Wis., USA) and contains the luciferase gene from the American firefly (Photinus pyralis) under the control of the MMTV promoter (Cato et al., EMBO J. 6: 363-368, 1987). These cells were propagated in routine cell culture at 37° C. and 5% CO2 in a medium containing 90% RPMI 1640 (Invitrogen GmbH, Darmstadt, Germany), 100 U penicillin, 100 μg/ml streptomycin (Invitrogen), 4 mM L-glutamine (Invitrogen), 10% fetal calf serum (FCS Serum Gold, PAA Laboratories GmbH, Cölbe, Germany), 600 μg/ml Geneticin (G418-sulphate, Invitrogen) and 10 μg/ml puromycin (Sigma Aldrich GmbH, Germany).
For carrying out the transactivation assays, approx. 1000 cells per well were plated out in a 384-well cell culture plate in a medium that contained activated charcoal-treated calf serum (FCS Serum Gold, PAA Laboratories) at a concentration of 5% (v/v). The test substances were added in a concentration series from 5.12×10^−12 to 1×10^−5 M in the presence of […] R1881 (methyltrienolone). The test plates were incubated overnight at 37° C. and 5% CO2. After 16 hours, 15 μl of Steady Glo Lysis and Detection reagent (E2550, Promega Corporation, Madison, Wis., USA) was added per well and the luminescence was read in a Topcount Luminometer (PerkinElmer, Waltham, Mass., USA) for 4 seconds per well. The luminescence values obtained were normalized, wherein 100% corresponded to the effect of the unstimulated control (without R1881), and 0% corresponded to the effect of the stimulated control (R1881 plus DMSO instead of test substance). The IC50 value was determined by regression analysis based on a four-parameter equation (minimum, maximum, IC50, Hill coefficient; Y=Max+(Min−Max)/(1+(X/IC50)^Hill)).

[3] = target: androgen receptor mutant E709Y (Homo sapiens (Human), UniProt P10275, E710Y); experiment: Transactivation assay for the androgen receptor mutant E709Y (transfected PC-3 cells); conditions: in the presence of 1×10^−10 M R1881, 24 hours
Description: PC-3 cells (Kaighn et al., Invest. Urol. 17: 16-23, 1979) were plated out at a density of 10000 cells per well of a 96-well cell culture plate in RMPI 1640 medium (F1235, Biochrom AG Berlin, Germany) that contained activated charcoal-treated calf serum (FCS Serum Gold, PAA Laboratories) at a concentration of 5% (v/v). On the next day the cells were transiently transfected with the pSG5-vector (#216201 Stratagene), which contained the sequence of the androgen receptor mutant E709Y (Georget et al., Mol. Endocrinol. 20(4): 724-734, 2006), and with the MMTV-luciferase plasmid (see above, transactivation assay for the androgen receptor mutant W741C). The cells were treated with the test substances in concentrations from 1×10^−8 to 1×10^−10 M in the presence of 1×10^−10 M R1881 and were incubated overnight at 37° C. and 5% CO2. After 24 hours, 100 μl of Steady Glo Lysis and Detection reagent (E2550, Promega) was added per well and the luminescence was read in a Victor3 Luminometer (PerkinElmer) for 1 second per well. The luminescence values obtained were normalized, wherein 100% corresponded to the effect of the unstimulated control (without R1881), and 0% corresponded to the effect of the stimulated control (R1881 plus DMSO instead of test substance). The IC50 value was determined by regression analysis based on a four-parameter equation (minimum, maximum, IC50, Hill coefficient; Y=Max+(Min−Max)/(1+(X/IC50)^Hill)).

Sequence of androgen receptor mutant W741C (P10275 whole entry W742C): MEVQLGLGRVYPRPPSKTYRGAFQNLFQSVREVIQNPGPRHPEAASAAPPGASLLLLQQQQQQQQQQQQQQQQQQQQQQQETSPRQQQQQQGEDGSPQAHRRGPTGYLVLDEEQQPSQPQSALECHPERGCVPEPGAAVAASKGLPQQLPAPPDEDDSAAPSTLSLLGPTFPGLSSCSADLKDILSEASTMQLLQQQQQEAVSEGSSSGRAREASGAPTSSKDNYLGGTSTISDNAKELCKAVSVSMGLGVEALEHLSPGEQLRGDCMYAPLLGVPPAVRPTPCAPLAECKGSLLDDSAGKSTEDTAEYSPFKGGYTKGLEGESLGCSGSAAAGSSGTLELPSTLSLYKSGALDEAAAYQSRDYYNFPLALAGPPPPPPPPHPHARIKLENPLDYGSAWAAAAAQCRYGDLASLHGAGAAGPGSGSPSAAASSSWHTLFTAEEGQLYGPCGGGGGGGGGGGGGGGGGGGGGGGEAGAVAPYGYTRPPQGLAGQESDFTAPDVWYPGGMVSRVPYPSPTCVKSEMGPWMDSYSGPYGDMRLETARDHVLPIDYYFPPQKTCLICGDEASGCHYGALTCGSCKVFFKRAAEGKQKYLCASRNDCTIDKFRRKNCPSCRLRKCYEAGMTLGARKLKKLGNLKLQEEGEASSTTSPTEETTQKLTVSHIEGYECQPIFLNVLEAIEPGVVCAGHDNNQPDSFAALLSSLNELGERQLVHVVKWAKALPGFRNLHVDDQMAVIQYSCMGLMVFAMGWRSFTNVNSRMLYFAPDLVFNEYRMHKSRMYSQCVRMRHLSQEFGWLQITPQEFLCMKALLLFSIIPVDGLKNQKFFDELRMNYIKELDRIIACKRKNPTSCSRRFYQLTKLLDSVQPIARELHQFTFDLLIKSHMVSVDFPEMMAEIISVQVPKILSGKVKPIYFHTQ
Sequence of androgen receptor mutant E709Y (P10275 whole entry E710Y): as the sequence (P10275 whole entry W742C) above, with E710Y, C742W counted along it
Sequence of human androgen receptor (full length, wild-type form) (P10275 whole entry): as the sequence (P10275 whole entry W742C) above, with C742W counted along it

For N#Cc1cccc2c(O[C@H]3CC[C@H](NC(=O)c4cccc(F)c4)CC3)ccnc12 [Example 23, N-{trans-4-[(8-cyanoquinolin-4-yl)oxy]cyclohexyl}-3-fluorobenzamide], the IC50 [1] was 0.03 µM, the IC50 [2] was 0.052 µM and the IC50 [3] was 0.009 µM.
